Counter-ions that a name gives are not always drawn.
Key:
[1] = test system: SW480 cells; test: SW480 Cellular Proliferation Assay (CellTiter-Glo); assay type: cell-based; details: Homo sapiens, 96 h, 4 days
Method: (§1) Cells were treated with compounds diluted in DMSO and a 10 point 3-fold serial dilutions. Plates were placed in 37° C., 5% CO2 for to incubate for 4 days. Before they were developed by adding 100 μL of CellTiter-Glo reagent (Promega) to the assay plate, plates were shaken briefly for 2 mins and allowed to incubate at RT for 60 mins. The bottom of the plates was pasted with white back seal and luminescence was recorded with Enspire or Envision.

[2] = test system: H23 cells; test: H23 Cellular Proliferation Assay (CellTiter-Glo); assay type: cell-based; details: Homo sapiens, NCI-H23, 96 h, 4 days
Method: as §1, with “a 9” for “a 10”, “point 5-fold” for “point 3-fold”, “CO2” for “CO2 for”, “for 10” for “for 60”, “mins. The plates are read with a M5e plate reader according to CellTiter-Glo protocol. The GraphPad Prism software was used to get IC50 values.” for “mins.”

[3] = target: Wee1 kinase (Homo sapiens (Human), UniProt P30291); test: Wee1 Binding Assay (FRET); details: Wee1 kinase 2 nM, tracer 178 50 nM, 60 min at RT, read-out: Wee1 Enzymatic IC50
Sequence of Wee1 kinase (P30291 whole entry): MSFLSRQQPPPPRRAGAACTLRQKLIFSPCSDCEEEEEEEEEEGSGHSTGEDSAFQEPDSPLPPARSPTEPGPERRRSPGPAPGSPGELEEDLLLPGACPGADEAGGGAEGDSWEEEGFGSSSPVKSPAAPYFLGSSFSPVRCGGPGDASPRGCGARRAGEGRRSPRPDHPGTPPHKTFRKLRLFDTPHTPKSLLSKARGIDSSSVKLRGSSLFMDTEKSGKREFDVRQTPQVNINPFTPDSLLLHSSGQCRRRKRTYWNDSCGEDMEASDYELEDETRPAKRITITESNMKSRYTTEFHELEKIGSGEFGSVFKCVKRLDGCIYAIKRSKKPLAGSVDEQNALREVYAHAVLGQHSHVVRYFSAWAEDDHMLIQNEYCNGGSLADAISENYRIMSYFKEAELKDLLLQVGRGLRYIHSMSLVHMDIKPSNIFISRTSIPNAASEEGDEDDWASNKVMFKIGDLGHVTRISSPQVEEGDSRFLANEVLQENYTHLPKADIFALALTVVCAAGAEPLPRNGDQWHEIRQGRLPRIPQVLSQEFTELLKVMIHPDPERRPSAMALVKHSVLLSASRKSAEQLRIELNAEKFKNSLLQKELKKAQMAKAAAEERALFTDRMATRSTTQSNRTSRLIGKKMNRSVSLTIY
Method: Wee 1 kinase was determined by using Flurorescence Resonance Energy Transfer (FRET) assay. […] The plate was shaken for 30 seconds, incubated for 60 min at RT, and recorded on fluorescence plate reader.

Row | SMILES | IC50 [1] [nM] | IC50 [2] [nM] | IC50 [3] [nM]
1 | C=CCn1c(=O)c2cnc(Nc3ccc(N4CCN(C)CC4)cc3)nc2n1-c1cccc(C(C)(C)O)n1 [AZD1775, 2-allyl-1-(6-(2-hydroxypropan-2-yl)pyridin-2-yl)-6-(4-(4-methylpiperazin-1-yl)phenylamino)-1,2-dihydropyrazolo[3,4-d]pyrimidin-3-one, reference compound] | 100 to 1000 | 100 to 1000 | –
2 | C=CCn1c(=O)c2cnc(Nc3ccc4c(c3)C(=O)N(C)CC4)nc2n1-c1cccc(C(C)(C)O)n1 [Example 20, 7-((2-Allyl-1-(6-(2-hydroxypropan-2-yl)pyridin-2-yl)-3-oxo-2,3-dihydro-H-pyrazolo[3,4-d]pyrimidin-6-yl)amino)-2-methyl-3,4-dihydroisoquinolin-1(2H)-one] | 100 to 1000 | 100 to 1000 | < 10
3 | C=CCn1c(=O)c2cnc(Nc3ccc4c(c3)CCN(CCO)C4)nc2n1-c1cccc(C(C)(C)O)n1 [Example 17, 2-Allyl-6-((2-(2-hydroxyethyl)-1,2,3,4-tetrahydroisoquinolin-6-yl)amino)-1-(6-(2-hydroxypropan-2-yl)pyridin-2-yl)-1,2-dihydro-3H-pyrazolo[3,4-d]pyrimidin-3-one hydrogen chloride] | – | 100 to 1000 | –
4 | C=CCn1c(=O)c2cnc(Nc3ccc4c(c3)CN(CC)CC4)nc2n1-c1cccc(C(C)(C)O)n1 [Example 7, 2-Allyl-6-((2-ethyl-1,2,3,4-tetrahydroisoquinolin-7-yl)amino)-1-(6-(2-hydroxypropan-2-yl)pyridin-2-yl)-1,2-dihydro-3H-pyrazolo[3,4-d]pyrimidin-3-one] | – | 100 to 1000 | < 10
5 | C=CCn1c(=O)c2cnc(Nc3ccc4c(c3)CCN(C)C4)nc2n1-c1cccc(C(C)(C)O)n1 [Example 16, 2-Allyl-1-(6-(2-hydroxypropan-2-yl)pyridin-2-yl)-6-((2-methyl-1,2,3,4-tetrahydroisoquinolin-6-yl)amino)-1,2-dihydro-3H-pyrazolo[3,4-d]pyrimidin-3-one] | > 1000 | < 100 | < 10
6 | C=CCn1c(=O)c2cnc(Nc3ccc4c(c3)[C@H](C)NCC4(C)C)nc2n1-c1cccc(C(C)(C)O)n1 (single isomer, unassigned) [Example 30] | – | < 100 | < 10
7 | C=CCn1c(=O)c2cnc(Nc3ccc4c(c3)CN(C(C)C)CC4)nc2n1-c1cccc(C(C)(C)O)n1 [Example 10, 2-Allyl-1-(6-(2-hydroxypropan-2-yl)pyridin-2-yl)-6-((2-isopropyl-1,2,3,4-tetrahydroisoquinolin-7-yl)amino)-1,2-dihydro-3H-pyrazolo[3,4-d]pyrimidin-3-one] | – | – | < 10
8 | C=CCn1c(=O)c2cnc(Nc3ccc4c(n3)CN(C)CC4)nc2n1-c1cccc(C(C)(C)O)n1 [Example 24, 2-Allyl-1-(6-(2-hydroxypropan-2-yl)pyridin-2-yl)-6-((7-methyl-5,6,7,8-tetrahydro-1,7-naphthyridin-2-yl)amino)-1,2-dihydro-3H-pyrazolo[3,4-d]pyrimidin-3-one] | – | – | 10 to 100
9 | C=CCn1c(=O)c2cnc(Nc3ccc4c(c3)CN(C(C)=O)CC4)nc2n1-c1cccc(C(C)(C)O)n1 [Example 8, 6-((2-Acetyl-1,2,3,4-tetrahydroisoquinolin-7-yl)amino)-2-allyl-1-(6-(2-hydroxypropan-2-yl)pyridin-2-yl)-1,2-dihydro-3H-pyrazolo[3,4-d]pyrimidin-3-one] | 100 to 1000 | > 1000 | < 10
10 | C=CCn1c(=O)c2cnc(Nc3ccc4c(c3)CCNC4)nc2n1-c1cccc(C(C)(C)O)n1 [Example 15, 2-Allyl-1-(6-(2-hydroxypropan-2-yl)pyridin-2-yl)-6-((1,2,3,4-tetrahydroisoquinolin-6-yl)amino)-1,2-dihydro-3H-pyrazolo[3,4-d]pyrimidin-3-one hydrogen chloride] | > 1000 | 100 to 1000 | < 10
11 | C=CCn1c(=O)c2cnc(Nc3ccc4c(c3)CN(C)CC43CC3)nc2n1-c1cccc(C(C)(C)O)n1 [Example 1, 2-Allyl-1-(6-(2-hydroxypropan-2-yl)pyridin-2-yl)-6-((2′-methyl-2′,3′-dihydro-1′H-spiro-[cyclopropane-1,4′-isoquinolin]-7′-yl)amino)-1,2-dihydro-3H-pyrazolo[3,4-d]pyrimidin-3-one] | 100 to 1000 | < 100 | –
12 | C=CCn1c(=O)c2cnc(Nc3ccc4c(c3)CNC4)nc2n1-c1cccc(C(C)(C)O)n1 [Example 21, 2-Allyl-1-(6-(2-hydroxypropan-2-yl)pyridin-2-yl)-6-(isoindolin-5-ylamino)-1,2-dihydro-3H-pyrazolo[3,4-d]pyrimidin-3-one hydrogen chloride] | – | 100 to 1000 | < 10
13 | C=CCn1c(=O)c2cnc(Nc3ccc4c(c3)CN(CCO)CC4)nc2n1-c1cccc(C(C)(C)O)n1 [Example 13, 2-Allyl-6-((2-(2-hydroxyethyl)-1,2,3,4-tetrahydroisoquinolin-7-yl)amino)-1-(6-(2-hydroxypropan-2-yl)pyridin-2-yl)-1,2-dihydro-3H-pyrazolo[3,4-d]pyrimidin-3-one hydrochloride] | > 1000 | 100 to 1000 | < 10
14 | C=CCn1c(=O)c2cnc(Nc3ccc4c(c3)CNCC4(F)F)nc2n1-c1cccc(C(C)(C)O)n1 [Example 28, 2-Allyl-6-((4,4-difluoro-1,2,3,4-tetrahydroisoquinolin-7-yl)amino)-1-(6-(2-hydroxypropan-2-yl)pyridin-2-yl)-1,2-dihydro-3H-pyrazolo[3,4-d]pyrimidin-3-one hydrogen chloride] | – | 100 to 1000 | < 10
15 | C=CCn1c(=O)c2cnc(Nc3ccc4c(c3)CCN(C3COC3)C4)nc2n1-c1cccc(C(C)(C)O)n1 [Example 18, 2-Allyl-1-(6-(2-hydroxypropan-2-yl)pyridin-2-yl)-6-((2-(oxetan-3-yl)-1,2,3,4-tetrahydroisoquinolin-6-yl)amino)-1,2-dihydro-3H-pyrazolo[3,4-d]pyrimidin-3-one] | – | 100 to 1000 | < 10
16 | C=CCn1c(=O)c2cnc(Nc3ccc4c(c3)[C@@H](C)NCC4(C)C)nc2n1-c1cccc(C(C)(C)O)n1 (single isomer, unassigned) [Example 29] | – | 100 to 1000 | < 10
17 | C=CCn1c(=O)c2cnc(Nc3ccc4c(c3)CN(C)CC4(F)F)nc2n1-c1cccc(C(C)(C)O)n1 [Example 27, 2-Allyl-6-((4,4-difluoro-2-methyl-1,2,3,4-tetrahydroisoquinolin-7-yl)amino)-1-(6-(2-hydroxypropan-2-yl)pyridin-2-yl)-1,2-dihydro-3H-pyrazolo[3,4-d]pyrimidin-3-one] | – | > 1000 | –
18 | C=CCn1c(=O)c2cnc(Nc3ccc4c(c3)CN(C(C)=O)CC43CC3)nc2n1-c1cccc(C(C)(C)O)n1 [Example 4, 6-((2′-Acetyl-2′,3′-dihydro-1′H-spiro[cyclopropane-1,4′-isoquinolin]-7′-yl)amino)-2-allyl-1-(6-(2-hydroxypropan-2-yl)pyridin-2-yl)-1,2-dihydro-3H-pyrazolo[3,4-d]pyrimidin-3-one] | – | – | < 10
19 | C=CCn1c(=O)c2cnc(Nc3ccc4c(n3)CCN(C)C4)nc2n1-c1cccc(C(C)(C)O)n1 [Example 26, 2-Allyl-1-(6-(2-hydroxypropan-2-yl)pyridin-2-yl)-6-((6-methyl-5,6,7,8-tetrahydro-1,6-naphthyridin-2-yl)amino)-1,2-dihydro-3H-pyrazolo[3,4-d]pyrimidin-3-one] | – | – | 10 to 100
20 | C=CCn1c(=O)c2cnc(Nc3ccc4c(c3)CN(C3COC3)CC4)nc2n1-c1cccc(C(C)(C)O)n1 [Example 14, 2-Allyl-1-(6-(2-hydroxypropan-2-yl)pyridin-2-yl)-6-((2-(oxetan-3-yl)-1,2,3,4-tetrahydroisoquinolin-7-yl)amino)-1,2-dihydro-3H-pyrazolo[3,4-d]pyrimidin-3-one] | – | 100 to 1000 | –
21 | C=CCn1c(=O)c2cnc(Nc3ccc4c(c3)CN(S(C)(=O)=O)CC4)nc2n1-c1cccc(C(C)(C)O)n1 [Example 9, 2-Allyl-1-(6-(2-hydroxypropan-2-yl)pyridin-2-yl)-6-((2-(methylsulfonyl)-1,2,3,4-tetrahydroisoquinolin-7-yl)amino)-1,2-dihydro-3H-pyrazolo[3,4-d]pyrimidin-3-one] | 100 to 1000 | – | < 10
22 | C=CCn1c(=O)c2cnc(Nc3cnc4c(c3)CN(C)CC4)nc2n1-c1cccc(C(C)(C)O)n1 [Example 25, 2-Allyl-1-(6-(2-hydroxypropan-2-yl)pyridin-2-yl)-6-((6-methyl-5,6,7,8-tetrahydro-1,6-naphthyridin-3-yl)amino)-1,2-dihydro-3H-pyrazolo[3,4-d]pyrimidin-3-one] | – | – | < 10
23 | C=CCn1c(=O)c2cnc(Nc3ccc4c(c3)CN(C(C)C)CC43CC3)nc2n1-c1cccc(C(C)(C)O)n1 [Example 3, 2-Allyl-1-(6-(2-hydroxypropan-2-yl)pyridin-2-yl)-6-((2′-isopropyl-2′,3′-dihydro-1′H-spiro[cyclopropane-1,4′-isoquinolin]-7′-yl)amino)-1,2-dihydro-3H-pyrazolo[3,4-d]pyrimidin-3-one] | – | – | < 10
24 | C=CCn1c(=O)c2cnc(Nc3ccc4c(c3)CN(C)C4)nc2n1-c1cccc(C(C)(C)O)n1 [Example 23, 2-Allyl-1-(6-(2-hydroxypropan-2-yl)pyridin-2-yl)-6-((2-methylisoindolin-5-yl)amino)-1,2-dihydro-3H-pyrazolo[3,4-d]pyrimidin-3-one] | – | 100 to 1000 | < 10

From patent US11124518B2, “L,2-dihydro-3H-pyrazolo[3,4-D]pyrimidin-3-one analogs” (Recurium IP Holdings, LLC, priority 2017, dated 2021)
